The source of these data is patent US11592451B2, “Method for the preselection of drugs for protein misfolding diseases” (betaSENSE GmbH, priority 2016, dated 2023).

“Also recorded” adds a separate entry of the source.

The test system of one test is memory function. Conditions: rat models; cited from earlier work.
For the next test, the system named is Tau protein. Kind of test: ATR-FTIR sensor drug-screening assay: Tau protein captured from human CSF on antibody Tau-5 terminated germanium, amide I band monitored. Particulars: Tau extracted from CSF; methylene blue 50 μM, berberine 100 μM. It is filed as biochemical.
For the next test, the target named is T1, Aβ1-42 (Homo sapiens, UniProt P05067).
T1 construct: Amyloid-beta-Protein fragment 1-42; purchased Sigma-Aldrich A9810; host or cells: synthetic peptide
Kind of test: ATR-FTIR sensor drug-screening assay: synthetic Aβ1-42 captured on antibody A8978 terminated germanium, auto-induced fibrilization monitored by amide I band. It is filed as biochemical.

T1 sequence (P05067 672-713 limits assumed): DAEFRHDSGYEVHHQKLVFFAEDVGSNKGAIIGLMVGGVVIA
Description for Aβ1-42: The present invention is based on the detection of secondary structural changes induced by the potential drug by means of vibrational spectroscopy. […] Instead of a 70V (Bruker) we employed an 80V FTIR spectrometer (Bruker) to improve the signal to noise ratio of the measurements. As internal reflection element germanium crystal were chemically modified with NHS-silanes, which function as anchors for the covalent attachment of the desired antibodies. After blocking the surface with casein the surface is ready for capturing of the target protein (Tau or Aβ1-42). […] The target protein was analyzed in the presence of the potential drug and the effect was monitored by the change in the amide I band. […] Another example is the study of the second important biomarker Aβ1-42. Since the developed sensor is universal, the antibody A8978 against the epitope 13-28 of Aβ1-42 could be applied for the analysis of the potential drug berberine. To monitor a potential effect of berberine the surface was loaded with synthetic Aβ1-42.
The human Aβ-peptide was purchased from Sigma-Aldrich (A9810, Amyloid-beta-Protein fragment 1-42).
IR-measurements were performed on a Vertex 80V spectrometer (Bruker Optics GmbH, Ettlingen, Germany) with liquid nitrogen cooled mercury-cadmium-telluride (MCT) detector. Double-sided interferograms were recorded in forward-backward interferometer movement at a 80 kHz data rate with a spectral resolution of 2 cm^−1, Blackman-Harris-3-Term-apodisation, Mertz-phase correction and 4 times zero filling. Reference spectra were recorded as an average of 1000, sample spectra of 200 interferograms. Recording reference single channel spectra of the blank sensor, sensor with 2-propanol, the silanized surface, the buffers, antibody or casein coated surface in equilibrium states enabled high sensitivity difference spectroscopy based on Lambert-Beer law (E=−log(I/I0). The absorbance of the state change is the negative decadic logarithm of the intensity relation before and after the change.
The antibody A8979 (Sigma-aldrich) was employed for capturing the Aβ-peptide (Nabers et al., Anal. Chem. 88(5):2755-62 doi:10.1021/acs.analchem.5b04286 (2016)). The Aβ-peptide (Aβ1-42, synthetic, Sigma-aldrich, Taufkrichen, Germany) was monomerized by incubation with hexafluoro-2-propanol as described elsewhere (Nabers et al., J. Biophotonics 9(3):224-34 doi:10.1002/jbio.201400145 (2016)).
Description for Tau protein: The present invention is based on the detection of secondary structural changes induced by the potential drug by means of vibrational spectroscopy. […] Instead of a 70V (Bruker) we employed an 80V FTIR spectrometer (Bruker) to improve the signal to noise ratio of the measurements. As internal reflection element germanium crystal were chemically modified with NHS-silanes, which function as anchors for the covalent attachment of the desired antibodies. After blocking the surface with casein the surface is ready for capturing of the target protein (Tau or Aβ1-42). The Tau protein was directly extracted out of human CSF. […] The target protein was analyzed in the presence of the potential drug and the effect was monitored by the change in the amide I band. […]
IR-measurements were performed on a Vertex 80V spectrometer (Bruker Optics GmbH, Ettlingen, Germany) with liquid nitrogen cooled mercury-cadmium-telluride (MCT) detector. Double-sided interferograms were recorded in forward-backward interferometer movement at a 80 kHz data rate with a spectral resolution of 2 cm^−1, Blackman-Harris-3-Term-apodisation, Mertz-phase correction and 4 times zero filling. Reference spectra were recorded as an average of 1000, sample spectra of 200 interferograms. […]

With `COc1ccc2cc3[n+](cc2c1OC)CCc1cc2c(cc1-3)OCO2` [berberine, berberine chloride], the “effect on memory function” value in the test on memory function is on record as “positive effect on the memory function”. The “effect on secondary structure distribution of Tau protein” value in the test on Tau protein was “did not change the secondary structure distribution; also recorded: no significant effect on the Tau protein”. Further, on Aβ1-42 (100 μM berberine), the “shoulder of amide I band (β-sheet enriched isoforms) of Aβ1-42 in presence of drug” value came to 1634 cm⁻¹. Also, the “shift of the amide I maximum of Aβ1-42 versus no drug” value at Aβ1-42 (100 μM berberine, 18 h) was 25 cm⁻¹. In addition, the “amide I maximum of Aβ1-42 in presence of drug” value at Aβ1-42 (100 μM berberine, 18 h total, without drug 1634 cm^−1) worked out at 1659 cm⁻¹. Besides, the “effect on secondary structure distribution / fibrilization of Aβ1-42” value on Aβ1-42 (synthetic Aβ1-42, drug 100 μM, same conditions for both drugs) was “shifts the distribution mainly to α-helix; also recorded: directly decelerates the aggregation process of Aβ1-42; also recorded: decelerates the auto-induced fibrilization of Aβ1-42”.
